Drawing on PubChem BioAssay (NCI), this text covers GI50 and TGI for four molecules.

The term GI50 denotes the concentration that inhibits growth by half. As a reminder, the TGI is the concentration giving total growth inhibition. A lower TGI goes with more potent growth arrest.

Test systems include OVCAR-4 ovarian; TK-10 renal; LOX IMVI melanoma; HOP-92 NSCLC; HCT-15 colon; UACC-257 melanoma; DU-145 prostate; MDA-MB-231 breast; UO-31 renal; MOLT-4 leukemia.
Experiment in all cases: DTP human tumour cell line panel, 48 h

Each structure is given as a SMILES string.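 Method: 48-hour compound exposure of cells in 96-well plates, five concentrations, linear interpolation of endpoints. Abbreviation: GI50, concentration required for 50% inhibition of growth. TGI: concentration producing complete growth inhibition.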

`CC1=C(C(=O)Nc2ccc3n[nH]c(C)c3c2)C(c2ccc(C(F)(F)F)cc2)CC(=O)N1` (centres undefined): the GI50 with OVCAR-4 ovarian was 16 µM; in the assay with TK-10 renal, 14 µM; in the assay with LOX IMVI melanoma, 12.8 µM; in the assay on HOP-92 NSCLC it was 11.7 nM; with HCT-15 colon it was above 25 µM; in the assay with UACC-257 melanoma, above 25 µM. Besides, the GI50 in the assay with DU-145 prostate was above 25 µM; in the assay with MDA-MB-231 breast, 15.9 µM; in the assay on UO-31 renal, 3.91 µM; in the assay on MOLT-4 leukemia it was 16.4 µM. The total growth inhibition concentration (TGI) with OVCAR-4 ovarian is above 25 µM; in the assay with TK-10 renal, above 25 µM; in the assay with LOX IMVI melanoma, above 25000 nM; with HOP-92 NSCLC, 1460 nM; with HCT-15 colon, above 25 µM; in the assay on UACC-257 melanoma it was above 25 µM. The TGI with DU-145 prostate, in the assay with MDA-MB-231 breast, in the assay with UO-31 renal and with MOLT-4 leukemia was above 25 µM each time.

In the case of `COc1ccc(C/C(C)=C(/c2ccc(OCCN3CCCCC3)cc2)c2ccc(OC(=O)NCc3ccccc3)cc2)cc1`, the GI50 in the assay on OVCAR-4 ovarian is 0.393 µM; in the assay with TK-10 renal, 0.405 µM; in the assay on LOX IMVI melanoma it was 0.421 µM; in the assay on HOP-92 NSCLC, 258 nM; in the assay on HCT-15 colon, 0.339 µM; in the assay on UACC-257 melanoma, 0.472 µM. Moreover, the GI50 with DU-145 prostate was 0.442 µM; in the assay on MDA-MB-231 breast it was 0.44 µM; in the assay on UO-31 renal, 0.34 µM; in the assay with MOLT-4 leukemia, 0.404 µM. The total growth inhibition concentration (TGI) amounted to 0.764 µM with OVCAR-4 ovarian; 0.781 µM with TK-10 renal; 779 nM in the assay with LOX IMVI melanoma; 575 nM in the assay with HOP-92 NSCLC; 0.706 µM with HCT-15 colon; 0.917 µM with UACC-257 melanoma. The TGI in the assay on DU-145 prostate was 0.805 µM; in the assay on MDA-MB-231 breast it was 0.81 µM; in the assay with UO-31 renal, 0.669 µM; in the assay on MOLT-4 leukemia it was 1.1 µM.

Consider `O=C1/C(=C/c2ccccc2)CN(C(=O)CCN2CCOCC2)C/C1=C\c1ccccc1`, for which the total growth inhibition concentration (TGI) in the assay on OVCAR-4 ovarian worked out at 8.38 µM; in the assay with TK-10 renal, 24.3 µM; in the assay on LOX IMVI melanoma, 2210 nM; in the assay on HOP-92 NSCLC, 22200 nM; in the assay on HCT-15 colon, 4.96 µM; in the assay with UACC-257 melanoma, 4.99 µM. The concentration for total growth inhibition (TGI) was 29.5 µM in the assay with DU-145 prostate, 9.78 µM with MDA-MB-231 breast, 19.2 µM in the assay with UO-31 renal and 21.6 µM in the assay with MOLT-4 leukemia.

With `Cn1ncnc1[C@H]1c2n[nH]c(=O)c3cc(F)cc(c23)N[C@@H]1c1ccc(F)cc1`, the GI50 in the assay with OVCAR-4 ovarian was 14.6 µM; in the assay on TK-10 renal it was above 100 µM; with LOX IMVI melanoma, 4.75 µM; in the assay with HCT-15 colon it was above 100 µM; in the assay with UACC-257 melanoma it was above 100 µM; in the assay with DU-145 prostate, 3.59 µM. Moreover, the GI50 is above 100 µM with MDA-MB-231 breast, 6.5 µM in the assay with UO-31 renal and 5.07 µM with MOLT-4 leukemia. For the same molecule, the total growth inhibition concentration (TGI) with OVCAR-4 ovarian was above 100 µM; in the assay on TK-10 renal, above 100 µM; with LOX IMVI melanoma it was above 100000 nM; with HOP-92 NSCLC, above 100000 nM; in the assay on HCT-15 colon, above 100 µM; in the assay on UACC-257 melanoma it was above 100 µM. For the same molecule, the concentration for total growth inhibition (TGI) in the assay with DU-145 prostate, in the assay on MDA-MB-231 breast, in the assay on UO-31 renal and in the assay with MOLT-4 leukemia was above 100 µM throughout.
